Laboratory results from PubChem BioAssay (NCI).
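Values below derive from 48-hour exposures of cells grown in 96-well plates, with endpoints linearly interpolated between the two concentrations bracketing the appropriate inhibition level. TGI marks complete inhibition of growth.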

Legend:
Assay in all cases: DTP human tumour cell line panel, 48 h
HOP-92 NSCLC = test system: HOP-92 NSCLC
SNB-19 CNS = test system: SNB-19 CNS
MDA-MB-231 breast = test system: MDA-MB-231 breast
SF-268 CNS = test system: SF-268 CNS
NCI-H522 lung = test system: NCI-H522 lung
SN12C renal = test system: SN12C renal
SW-620 colon = test system: SW-620 colon
EKVX NSCLC = test system: EKVX NSCLC
SF-539 CNS = test system: SF-539 CNS
UO-31 renal = test system: UO-31 renal

Cc1ccc(Nc2nc3[nH]ccc3c(=O)[nH]2)cc1
TGI (HOP-92 NSCLC): > 100 µM | TGI (SNB-19 CNS): > 100 µM | TGI (MDA-MB-231 breast): > 100 µM | TGI (SF-268 CNS): > 100 µM | TGI (NCI-H522 lung): > 100 µM | TGI (SN12C renal): > 100 µM | TGI (SW-620 colon): > 100 µM | TGI (EKVX NSCLC): > 100 µM | TGI (SF-539 CNS): > 100 µM | TGI (UO-31 renal): > 100 µM

Oc1cc(Cc2ccccc2)c(Cc2ccccc2)cc1O
TGI (HOP-92 NSCLC): > 10 µM | TGI (SNB-19 CNS): > 10 µM | TGI (MDA-MB-231 breast): > 10 µM | TGI (SF-268 CNS): > 10 µM | TGI (NCI-H522 lung): > 10 µM | TGI (SN12C renal): > 10 µM | TGI (SW-620 colon): > 10 µM | TGI (EKVX NSCLC): > 10 µM | TGI (SF-539 CNS): > 10 µM | TGI (UO-31 renal): > 10 µM

COC1CC(N)(c2ccccc2)C(O)C(C)O1 (stereo not given)
TGI (HOP-92 NSCLC): > 100 µM | TGI (SNB-19 CNS): > 100 µM | TGI (MDA-MB-231 breast): > 100 µM | TGI (SF-268 CNS): > 100 µM | TGI (NCI-H522 lung): > 100 µM | TGI (SN12C renal): > 100 µM | TGI (SW-620 colon): > 100 µM | TGI (EKVX NSCLC): > 100 µM | TGI (SF-539 CNS): > 100 µM | TGI (UO-31 renal): > 100 µM

CC(C)/C(Cl)=N/OC(=O)Nc1ccc(Br)cc1
TGI (HOP-92 NSCLC): 3.35 µM | TGI (SNB-19 CNS): 44.1 µM | TGI (MDA-MB-231 breast): 31.2 µM | TGI (SF-268 CNS): 34 µM | TGI (NCI-H522 lung): 2.97 µM | TGI (SN12C renal): 4.62 µM | TGI (SW-620 colon): 4.6 µM | TGI (EKVX NSCLC): 4.37 µM | TGI (SF-539 CNS): 29.1 µM | TGI (UO-31 renal): 23.8 µM

CN(C)CC(O)c1ccc(Cl)c2ccccc12 (stereo not given)
TGI (HOP-92 NSCLC): > 68.2 µM | TGI (SNB-19 CNS): > 100 µM | TGI (MDA-MB-231 breast): > 73.4 µM | TGI (SF-268 CNS): > 100 µM | TGI (NCI-H522 lung): > 100 µM | TGI (SN12C renal): > 100 µM | TGI (SW-620 colon): > 100 µM | TGI (EKVX NSCLC): > 100 µM | TGI (SF-539 CNS): > 100 µM | TGI (UO-31 renal): > 62.2 µM

N#CN1C2CCC1CC(=O)C2
TGI (HOP-92 NSCLC): > 100 µM | TGI (SNB-19 CNS): > 100 µM | TGI (MDA-MB-231 breast): > 100 µM | TGI (SF-268 CNS): > 100 µM | TGI (NCI-H522 lung): > 100 µM | TGI (SN12C renal): > 100 µM | TGI (SW-620 colon): > 100 µM | TGI (EKVX NSCLC): > 100 µM | TGI (SF-539 CNS): > 100 µM | TGI (UO-31 renal): > 100 µM
